Biological target: recombinant CD73 (Homo sapiens (Human), UniProt P21589)
Experiment: Assay 1: Inhibition of the CD73 enzyme in vitro (0.5 nM CD73, 30 min room temperature, Malachite Green)
Assay type: biochemical
Conditions: 0.5 nM CD73, 30 minutes at room temperature
Description: For measurements of soluble CD73 enzyme activity, recombinant CD73 was obtained from R&D Systems, Cat. No. 5795-EN-010. […] Reactions were allowed to proceed for 30 minutes at room temperature before the addition of 100 μL Malachite Green (Cell Signaling Technology, Cat. No. 12776). After 5 minutes at room temperature, absorbance at 630 nm was determined on a microplate spectrophotometer. The concentration of inorganic phosphate was determined using a phosphate standard curve.

recombinant CD73, sequence (P21589 27-547): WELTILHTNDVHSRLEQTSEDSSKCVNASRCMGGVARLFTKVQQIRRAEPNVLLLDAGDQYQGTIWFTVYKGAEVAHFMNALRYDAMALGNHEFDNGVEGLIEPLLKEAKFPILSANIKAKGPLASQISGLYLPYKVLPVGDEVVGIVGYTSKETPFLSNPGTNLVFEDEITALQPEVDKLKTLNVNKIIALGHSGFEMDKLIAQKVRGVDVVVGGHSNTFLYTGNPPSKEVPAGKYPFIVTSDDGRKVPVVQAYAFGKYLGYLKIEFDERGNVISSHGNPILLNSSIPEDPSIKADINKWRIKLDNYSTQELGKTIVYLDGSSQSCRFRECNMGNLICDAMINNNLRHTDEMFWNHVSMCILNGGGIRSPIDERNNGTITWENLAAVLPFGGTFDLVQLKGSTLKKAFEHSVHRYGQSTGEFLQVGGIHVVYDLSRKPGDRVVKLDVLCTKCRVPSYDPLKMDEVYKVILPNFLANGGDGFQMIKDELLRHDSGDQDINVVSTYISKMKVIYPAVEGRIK

Row | SMILES | IC50 [nM]
1 | C#C[C@@]1(O)[C@@H](COC(C(=O)O)c2csc(C(=O)O)n2)O[C@@H](n2cnc3c(N)nc(Cl)nc32)[C@@H]1O (stereo partly drawn) [Example 195, 4-((((2R,3S,4R,5R)-5-(6-amino-2-chloro-9H-purin-9-yl)-3-ethynyl-3,4-dihydroxytetrahydrofuran-2-yl)methoxy)(carboxy)methyl)thiazole-2-carboxylic acid] | 236
2 | C[C@@]1(O)[C@@H](COC(Cc2ccc(-c3ccccc3C(=O)O)cc2)(C(=O)O)c2cscn2)O[C@@H](n2cnc3c(N)nc(Cl)nc32)[C@@H]1O (stereo partly drawn) [Example 200, 4′-(2-(((2R,3S,4R,5R)-5-(6-amino-2-chloro-9H-purin-9-yl)-3,4-dihydroxy-3-methyltetrahydrofuran-2-yl)methoxy)-2-carboxy-2-(thiazol-4-yl)ethyl)-[1,1′-biphenyl]-2-carboxylic acid] | 6090
3 | C[C@@]1(O)[C@@H](COC(Cc2ccc(-c3ccccc3C(=O)O)cc2)(C(=O)O)c2nnn[nH]2)O[C@@H](n2cnc3c(N)nc(Cl)nc32)[C@@H]1O (stereo partly drawn) [Example 201, 4′-(2-(((2R,3S,4R,5R)-5-(6-amino-2-chloro-9H-purin-9-yl)-3,4-dihydroxy-3-methyltetrahydrofuran-2-yl)methoxy)-2-carboxy-2-(1H-tetrazol-5-yl)ethyl)-[1,1′-biphenyl]-2-carboxylic acid] | 204

The next compounds have a lower IC50 than those just listed; values first:

Row | IC50 [nM] | SMILES
4 | 82 | C#C[C@@]1(O)[C@@H](COC(Cc2ccccc2)(C(=O)O)c2csc(C(=O)O)n2)O[C@@H](n2cnc3c(N)nc(Cl)nc32)[C@@H]1O (stereo partly drawn) [Example 196, 4-(1-(((2R,3S,4R,5R)-5-(6-amino-2-chloro-9H-purin-9-yl)-3-ethynyl-3,4-dihydroxytetrahydrofuran-2-yl)methoxy)-1-carboxy-2-phenylethyl)thiazole-2-carboxylic acid]
5 | 148 | C#C[C@@]1(O)[C@@H](COP(=O)(O)CP(=O)(O)O)O[C@@H](n2cnc3c(N)nc(Cl)nc32)[C@@H]1O [Example 202, (((((2R,3S,4R,5R)-5-(6-amino-2-chloro-9H-purin-9-yl)-3-ethynyl-3,4-dihydroxytetrahydrofuran-2-yl)methoxy)(hydroxy)phosphoryl)methyl)phosphonic acid]
6 | 4.2 | C#C[C@@]1(O)[C@@H](COP(=O)(O)CP(=O)(O)O)O[C@@H](n2cnc3c(NCc4ccccc4)nc(Cl)nc32)[C@@H]1O [Example 203, (((((2R,3S,4R,5R)-5-(6-(benzylamino)-2-chloro-9H-purin-9-yl)-3-ethynyl-3,4-dihydroxytetrahydrofuran-2-yl)methoxy)(hydroxy)phosphoryl)methyl)phosphonic acid]
7 | 100 | C#C[C@@]1(O)[C@@H](COCP(=O)(O)O)O[C@@H](n2cnc3c(NCc4ccccc4)nc(Cl)nc32)[C@@H]1O [Example 204, ((((2R,3S,4R,5R)-5-(6-(benzylamino)-2-chloro-9H-purin-9-yl)-3-ethynyl-3,4-dihydroxytetrahydrofuran-2-yl)methoxy)methyl)phosphonic acid]
8 | 12 | C[C@@]1(O)[C@@H](COP(=O)(O)CP(=O)(O)O)O[C@@H](n2cnc3c(NCc4ccccc4)nc(Cl)nc32)[C@@H]1O [Example 205, (((((2R,3S,4R,5R)-5-(6-(benzylamino)-2-chloro-9H-purin-9-yl)-3,4-dihydroxy-3-methyltetrahydrofuran-2-yl)methoxy)(hydroxy)phosphoryl)methyl)phosphonic acid]

Reference: patent publication US11078228B2, “Ectonucleotidase inhibitors and methods of use thereof” (Calithera Biosciences, Inc., priority 2018, dated 2021)
